Results taken from patent US20250034139A1, “AMINE COMPOUNDS HAVING ANTI-INFLAMMATORY, ANTIFUNGAL, ANTIPARASITIC, AND ANTICANCER ACTIVITY” (PHARMA CINQ, LLC, priority 2013, published 2025).

Columns and labels:
[1] = tested on: PC3 human prostate cancer cells; experiment: Example S: in vitro anticancer screen, PC-3 cells, Wst1; assay type: cell-based; details: approximately 20 hours, Wst1
Experimental: Activity against PC3 human prostate cancer cells in vitro was assessed by a similar method. PC-3 prostate cancer cells were plated at 2×10^4 cells/well in 96 well flat bottom tissue culture plates, and incubated for approximately 20 hours with vehicle or test compounds at concentrations of 0.4, 0.5 or 2.5 μM as indicated for specific compounds in the right-hand column of Table 37. A 1/10th volume of Wst1 dye was added/well and incubated for two hours in the cell culture incubator. Samples were analyzed in triplicate on an EL800 Universal Microplate Reader at 450 nm, reference wavelength 630 nm.
(§1) Numerical values in the Table 37 represent percent of cancer cell survival relative to vehicle treated cells at the indicated concentrations, with values under 100 indicating anticancer cytotoxic activity at the drugs concentrations tested.

[2] = tested on: 4T1 murine breast cancer cells; experiment: Example S: in vitro anticancer screen, 4T1 cells, Wst1; assay type: cell-based, mouse; details: 18 hr, Wst1; for viability at 1 µM / viability at 5 µM: Mus musculus, 4T1, 18 h; for viability at 1 µM: read-out: 4T1 1 μM, percent of cancer cell survival relative to vehicle treated cells; for viability at 5 µM: read-out: 4T1 5 μM, percent of cancer cell survival relative to vehicle treated cells
Experimental: Anticancer activity against 4T1 murine breast cancer cells cancer cells was assessed in vitro by seeding 1×10^4 cells/well in flat bottom culture plates, then treating with selected 1 μM or 5 μM concentrations of compounds for 18 hr after plating. Then 10 μL of Wst1 dye reagent, a tetrazolium dye indicator for […], was added/well and incubated approximately 2 hr before being assayed on the Biotek EL800 Universal microplate reader (450 nm, reference 630 nm).
as §1

THP-1 cells = experiment: Example D: LPS-triggered THP-1 cell death assay, acute/5-hour and chronic/48-hour; assay type: cell-based, Human; details: for Viable cell percent change, Chronic/48-hour, Mean: 10 ng/ml LPS, 0.1 μM test compound; for activity relative to AC in the LPS-triggered THP-1 cell death assay, in words: 0.1 μM, 5-hour and 48-hour time points
Experimental: Compounds of the invention were tested at 0.1 μM versus AC in the LPS-triggered THP-1 cell death assay. Both acute/5-hour and chronic/48-hour phases of cell death were assessed. Compounds were screened in batches with DMSO as the negative control and AC as the high activity control.

[3] = tested on: PC-3 prostate cancer cells; experiment: Example T: sensitisation of PC-3 cells to doxorubicin, oxaliplatin, paclitaxel or vincristine, Wst1; assay type: cell-based, human; details: PC-3 cells, 72 hours; for viability at 0.4 µM: compound 0.4 μM alone; for Doxorubicin 3.5 μM: percent cell survival / Oxaliplatin 100 μM: percent cell survival / Paclitaxel 50 μM: percent cell survival / Vincristine 100 nM: percent cell survival: chemotherapy agent alone normalized to 100%; for viability at 0.5 µM: compound 0.5 μM alone
[4] = Homo sapiens, PC-3, read-out: PC-3, percent of cancer cell survival relative to vehicle treated cells
[5] = Homo sapiens, Wst1, vehicle = 100, read-out: No Chemo: percent cell survival
[6] = compound 0.4 μM + doxorubicin 3.5 μM
[7] = compound 0.4 μM + oxaliplatin 100 μM
[8] = compound 0.4 μM + paclitaxel 50 μM
[9] = compound 0.4 μM + vincristine 100 nM
[10] = Homo sapiens, PC-3, 2.5 μM, read-out: PC-3, percent of cancer cell survival relative to vehicle treated cells
[11] = Homo sapiens, compound 2.5 μM alone, Wst1, vehicle = 100, read-out: No Chemo: percent cell survival
[12] = compound 2.5 μM + doxorubicin 3.5 μM
[13] = compound 2.5 μM + oxaliplatin 100 μM
[14] = compound 2.5 μM + paclitaxel 50 μM
[15] = compound 2.5 μM + vincristine 100 nM
[16] = compound 0.5 μM + doxorubicin 3.5 μM
[17] = compound 0.5 μM + oxaliplatin 100 μM
[18] = compound 0.5 μM + paclitaxel 50 μM
[19] = compound 0.5 μM + vincristine 100 nM

SMILES | viability at 0.4 µM [1, 4] [%] | viability at 1 µM ([2]; 1 μM) [%] | viability at 5 µM ([2]; 5 μM) [%] | Viable cell percent change, Chronic/48-hour, Mean (THP-1 cells) [%] | viability at 0.4 µM [3, 5] [%] | Doxorubicin 3.5 μM: percent cell survival [3, 6] [%] | Oxaliplatin 100 μM: percent cell survival [3, 7] [%] | Paclitaxel 50 μM: percent cell survival [3, 8] [%] | Vincristine 100 nM: percent cell survival [3, 9] [%] | other results
c1ccc(COc2cccc(CNc3ccnc4ccccc34)c2)cc1 [BU, N-[3-(Benzyloxy)benzyl]quinolin-4-amine] | 24 | 17.6 | 21.4 | 18.10 | 24 | 48.1 | 57.2 | 31 | 26.7 | activity relative to AC in the LPS-triggered THP-1 cell death assay, in words (THP-1 cells): equivalent activity to AC at both the 5-hour and 48-hour time points
c1cncc(CNc2ccnc3ccccc23)c1 [BY, N-(Pyridin-3-ylmethyl)quinolin-4-amine] | – | 107 | 209 | 39.64 | – | – | – | – | – | viability at 2.5 µM [1, 10]: 96.6%; viability at 2.5 µM [3, 11]: 96.6%; Doxorubicin 3.5 μM: percent cell survival [3, 12]: 98.4%; Oxaliplatin 100 μM: percent cell survival [3, 13]: 101.1%; Paclitaxel 50 μM: percent cell survival [3, 14]: 99.9%; Vincristine 100 nM: percent cell survival [3, 15]: 94.1%
CCCCCCOCCCCCOCCCn1cnc2cnc3ccccc3c21 [CF] | – | – | – | 27.26 | – | – | – | – | – | PC-3, percent of cancer cell survival relative to vehicle treated cells ([1]; 2.5 μM): 126.4%; 4T1 1 μM, percent of cancer cell survival relative to vehicle treated cells ([2]; 1 μM): 96.7%; 4T1 5 μM, percent of cancer cell survival relative to vehicle treated cells ([2]; 5 μM): 28.6%; Doxorubicin 3.5 μM: percent cell survival [3, 12]: 68.8%; Oxaliplatin 100 μM: percent cell survival [3, 13]: 83.5%; Paclitaxel 50 μM: percent cell survival [3, 14]: 70.3%; Vincristine 100 nM: percent cell survival [3, 15]: 75.3%; No Chemo: percent cell survival ([3]; compound 2.5 μM alone, Wst1, vehicle = 100): 126.4%
CCCCCCOCCCCCCCCNc1ccnc2ccccc12 [CH, N-[8-(Hexyloxy)octyl]quinolin-4-amine] | 102 | 45.2 | 27.2 | 53.55 | 102 | 62.8 | 101.1 | 84.6 | 67.4 | –
CCCCCCOCCCCCCNc1ccnc2ccccc12 [CK, N-[6-(Hexyloxy)hexyl]quinolin-4-amine] | – | 62.5 | 45.3 | 42.23 | – | – | – | – | – | viability at 0.5 µM [1, 4]: 51.4%; viability at 0.5 µM [3, 5]: 51.4%; Doxorubicin 3.5 μM: percent cell survival [3, 16]: 111.6%; Oxaliplatin 100 μM: percent cell survival [3, 17]: 143%; Paclitaxel 50 μM: percent cell survival [3, 18]: 64.2%; Vincristine 100 nM: percent cell survival [3, 19]: 138.2%
CCCCOCCCCCCNc1ccnc2ccccc12 [CL, N-(6-Butoxyhexyl)quinolin-4-amine] | 58.1 | 25.6 | 19.5 | 29.43 | 58.1 | 22.6 | 23.2 | 50.3 | 27.7 | activity relative to AC in the LPS-triggered THP-1 cell death assay, in words (THP-1 cells): equivalent activity to AC at both the 5-hour and 48-hour time points
c1ccc(COCCCCCCCCNc2ccnc3ccccc23)cc1 [CO, N-[8-(Benzyloxy)octyl]quinolin-4-amine] | 77.1 | 28.4 | 55.6 | 43.95 | 77.1 | 28.4 | 29.2 | 51.6 | 32.8 | –
CCCCCCOc1ccccc1OCCCCNc1ccnc2ccccc12 [CR, N-{4-[2-(Hexyloxy)phenoxy]butyl}quinolin-4-amine] | – | 110 | 31.8 | 40.02 | – | – | – | – | – | viability at 2.5 µM [1, 10]: 53.2%; viability at 2.5 µM [3, 11]: 53.2%; Doxorubicin 3.5 μM: percent cell survival [3, 12]: 87.6%; Oxaliplatin 100 μM: percent cell survival [3, 13]: 89.3%; Paclitaxel 50 μM: percent cell survival [3, 14]: 93.4%; Vincristine 100 nM: percent cell survival [3, 15]: 86.9%
CCCCCCOc1cccc(OCCCCNc2ccnc3ccccc23)c1 [CV, N-{4-[3-(Hexyloxy)phenoxy]butyl}quinolin-4-amine] | – | 25.7 | 16.9 | 23.02 | – | – | – | – | – | viability at 0.5 µM [1, 4]: 73.8%; activity relative to AC in the LPS-triggered THP-1 cell death assay, in words (THP-1 cells): equivalent activity to AC at both the 5-hour and 48-hour time points; viability at 0.5 µM [3, 5]: 73.8%; Doxorubicin 3.5 μM: percent cell survival [3, 16]: 36.2%; Oxaliplatin 100 μM: percent cell survival [3, 17]: 30.6%; Paclitaxel 50 μM: percent cell survival [3, 18]: 21.4%; Vincristine 100 nM: percent cell survival [3, 19]: 36.1%
CCCCCCOc1cccc(OCCNc2ccnc3ccccc23)c1 [CW, N-{2-[3-(Hexyloxy)phenoxy]ethyl}quinolin-4-amine] | 98.5 | 25.1 | 18.4 | 43.71 | 98.5 | 31.9 | 26.6 | 55.9 | 69.4 | –
CCCCCCOc1ccc(OCCCNc2ccnc3ccccc23)cc1 [CY, N-{3-[4-(Hexyloxy)phenoxy]propyl}quinolin-4-amine] | 40.5 | 24.5 | 29.1 | 47.86 | 40.5 | 76.6 | 84.3 | 71.7 | 81.7 | –
CC(C)(C)c1ccc(OCCCCCCCCNc2ccnc3ccccc23)cc1 [DA, N-[8-(4-tert-Butylphenoxy)octyl]quinolin-4-amine] | 95.7 | 17.6 | 18.4 | 43.55 | 95.7 | 82.8 | 91.3 | 100.8 | 19.1 | –
CCCCCCOCCCCCCCCn1ccc2ccccc21 [FW, 1-[8-(Hexyloxy)octyl]-1H-indole] | – | – | – | 1.27 | – | – | – | – | – | viability at 5 µM ([1]; Homo sapiens, PC-3, 5 μM, read-out: PC-3, percent of cancer cell survival relative to vehicle treated cells): 98.1%; viability at 5 µM ([3]; Homo sapiens, compound 5 μM alone, Wst1, vehicle = 100, read-out: No Chemo: percent cell survival): 98.1%; Doxorubicin 3.5 μM: percent cell survival ([3]; compound 5 μM + doxorubicin 3.5 μM): 102.7%; Oxaliplatin 100 μM: percent cell survival ([3]; compound 5 μM + oxaliplatin 100 μM): 109.6%; Paclitaxel 50 μM: percent cell survival ([3]; compound 5 μM + paclitaxel 50 μM): 128.5%; Vincristine 100 nM: percent cell survival ([3]; compound 5 μM + vincristine 100 nM): 104.6%
